Data as given in US8785488B2 (Exelixis Patent Company LLC, priority 2009, dated 2014).
pEC50: −log10 of the molar value.

Tests used:
human TGR5 (h-TGR5) = target: T1, human TGR5 (h-TGR5) (Homo sapiens, UniProt Q8TDU6); assay: TGR5/CRE-Luciferiase Assay (HEK 293 hTGR5/CRE-Luc cells); format: cell-based; settings: h-TGR5 CRE-Luc EC50, Table 1; read-out: CRE-Luc (EC50)
T1 construct: expressed in transfected cells
T1 sequence (Q8TDU6 1-330): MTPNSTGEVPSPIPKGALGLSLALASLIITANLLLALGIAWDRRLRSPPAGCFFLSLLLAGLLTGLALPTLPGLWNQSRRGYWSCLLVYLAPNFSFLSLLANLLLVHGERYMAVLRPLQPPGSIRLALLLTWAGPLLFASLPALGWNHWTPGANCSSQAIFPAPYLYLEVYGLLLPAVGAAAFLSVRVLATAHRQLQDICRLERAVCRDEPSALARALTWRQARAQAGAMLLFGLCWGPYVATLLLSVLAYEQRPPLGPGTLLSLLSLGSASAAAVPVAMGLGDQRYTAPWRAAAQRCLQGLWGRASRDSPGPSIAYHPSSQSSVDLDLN
How it was run: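 HEK293 cells stably carrying hTGR5 and a CRE-luciferase reporter were exposed to serially diluted compounds (diluted in DMEM with 5% DMSO) for 6 h. Cells were then lysed in luciferase buffer, luminescence was read, and EC50 values were derived from dose-response curves.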

h-TGR5 = target: T2, h-TGR5 (Homo sapiens, UniProt Q8TDU6); assay: TGR5 cAMP Assay using Cisbio cAMP Dynamic2 htrf kit (hTGR5CRE-luc HEK 293 cells); format: cell-based; settings: h-TGR5 cAMP EC50, Table 1; read-out: cAMP (EC50)
T2 construct: expressed in transfected cells
T2 sequence (Q8TDU6 1-330): T1 sequence (Q8TDU6 1-330)
How it was run: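 […], 4000 hTGR5CRE-luc HEK 293 cells per well, with 0.5 mM IBMX and d2-cAMP, were incubated 30 min at room temperature with compounds in 8-point half-log series, in quadruplicate.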

Row | SMILES | pEC50 (human TGR5 (h-TGR5)) | pEC50 (h-TGR5)
1 | CC(C)(c1ccc(C#N)c(Cl)c1)c1cnc(SCc2ccc(F)cc2Cl)n1-c1ccc(F)cc1 [2-chloro-4-{1-[2-{[(2-chloro-4-fluorophenyl)methyl]thio}-1-(4-fluorophenyl)-1H-imidazol-5-yl]-1-methylethyl}benzonitrile] | 6.00 to 7.00 | 6.00 to 7.00
2 | COc1ccc(C(C)(C)c2cnc(SCc3ccc(Cl)c(C(=O)O)c3)n2-c2ccc(F)cc2)cc1Cl [2-chloro-5-({[5-{1-[3-chloro-4-(methyloxy)phenyl]-1-methylethyl}-1-(4-fluorophenyl)-1H-imidazol-2-yl]thio}methyl)benzoic acid] | 6.00 to 7.00 | 6.00 to 7.00
3 | COc1cc(C(C)(C)c2cnc(SCc3cc(S(N)(=O)=O)c(Cl)cc3F)n2-c2ccc(F)cc2)ccc1Cl [2-chloro-5-({[5-{1-[4-chloro-3-(methyloxy)phenyl]-1-methylethyl}-1-(4-fluorophenyl)-1H-imidazol-2-yl]thio}methyl)-4-fluorobenzenesulfonamide] | > 7.00 | > 7.00
4 | CC(C)NC(=O)NS(=O)(=O)c1cc(CSc2ncc(C(C)(C)c3ccc(Cl)c(Cl)c3)n2-c2ccc(F)cc2)ccc1Cl [2-chloro-5-[({5-[1-(3,4-dichlorophenyl)-1-methylethyl]-1-(4-fluorophenyl)-1H-imidazol-2-yl}thio)methyl]-N-{[(1-methylethyl)amino]carbonyl}benzenesulfonamide] | 6.00 to 7.00 | 6.00 to 7.00
5 | CC(C)(c1ccc(Cl)c(Cl)c1)c1cnc(SCc2ccc(Cl)c(S(N)(=O)=O)c2)n1-c1ccc(F)cc1 [2-chloro-5-[({5-[1-(3,4-dichlorophenyl)-1-methylethyl]-1-(4-fluorophenyl)-1H-imidazol-2-yl}thio)methyl]benzenesulfonamide] | > 7.00 | > 7.00
6 | COc1cc(-n2c(C(C)(C)c3ccc(Cl)c(Cl)c3)cnc2SCc2ccc(F)cc2Cl)ccc1F [2-{[(2-chloro-4-fluorophenyl)methyl]thio}-5-[1-(3,4-dichlorophenyl)-1-methylethyl]-1-[4-fluoro-3-(methyloxy)phenyl]-1H-imidazole] | 6.00 to 7.00 | 6.00 to 7.00
7 | COc1cc(C(C)(C)c2cnc(SCc3ccc(F)cc3Cl)n2-c2ccc(F)cc2)ccc1Cl [2-{[(2-chloro-4-fluorophenyl)methyl]thio}-5-{1-[4-chloro-3-(methyloxy)phenyl]-1-methylethyl}-1-(4-fluorophenyl)-1H-imidazole] | > 7.00 | 6.00 to 7.00
8 | COc1ccc(C(C)(C)c2cnc(SCc3cc(F)ccc3Cl)n2-c2ccc(F)cc2)cc1Cl [2-{[(2-chloro-5-fluorophenyl)methyl]thio}-5-{1-[3-chloro-4-(methyloxy)phenyl]-1-methylethyl}-1-(4-fluorophenyl)-1H-imidazole] | > 7.00 | 6.00 to 7.00
9 | CC(C)(c1cccc(S(C)(=O)=O)c1)c1cnc(SCc2c(F)cccc2Cl)n1-c1ccc(F)cc1 [2-{[(2-chloro-6-fluorophenyl)methyl]thio}-1-(4-fluorophenyl)-5-{1-methyl-1-[3-(methylsulfonyl)phenyl]ethyl}-1H-imidazole] | 6.00 to 7.00 | > 7.00
10 | COc1ccc(C(C)(C)c2cnc(SCc3c(F)cccc3Cl)n2-c2ccc(F)cc2)cc1 [2-{[(2-chloro-6-fluorophenyl)methyl]thio}-1-(4-fluorophenyl)-5-{1-methyl-1-[4-(methyloxy)phenyl]ethyl}-1H-imidazole] | > 7.00 | 6.00 to 7.00
11 | CC(C)(c1ccc(Cl)c(Cl)c1)c1cnc(SCc2c(F)cccc2Cl)n1-c1ccc(F)cc1F [2-{[(2-chloro-6-fluorophenyl)methyl]thio}-5-[1-(3,4-dichlorophenyl)-1-methylethyl]-1-(2,4-difluorophenyl)-1H-imidazole] | 6.00 to 7.00 | 6.00 to 7.00
12 | CC(C)(c1ccc(Cl)c(Cl)c1)c1cnc(SCc2c(F)cccc2Cl)n1-c1ccc(F)c(F)c1 [2-{[(2-chloro-6-fluorophenyl)methyl]thio}-5-[1-(3,4-dichlorophenyl)-1-methylethyl]-1-(3,4-difluorophenyl)-1H-imidazole] | > 7.00 | 6.00 to 7.00
13 | CC(C)(c1ccc(Cl)c(Cl)c1)c1cnc(SCc2c(F)cccc2Cl)n1-c1ccc(F)cc1 [2-{[(2-chloro-6-fluorophenyl)methyl]thio}-5-[1-(3,4-dichlorophenyl)-1-methylethyl]-1-(4-fluorophenyl)-1H-imidazole] | > 7.00 | 6.00 to 7.00
14 | COc1cc(-n2c(C(C)(C)c3ccc(Cl)c(Cl)c3)cnc2SCc2c(F)cccc2Cl)ccc1F [2-{[(2-chloro-6-fluorophenyl)methyl]thio}-5-[1-(3,4-dichlorophenyl)-1-methylethyl]-1-[4-fluoro-3-(methyloxy)phenyl]-1H-imidazole] | > 7.00 | > 7.00
15 | COc1c(Cl)cc(C(C)(C)c2cnc(SCc3c(F)cccc3Cl)n2-c2ccc(F)cc2)cc1Cl [2-{[(2-chloro-6-fluorophenyl)methyl]thio}-5-{1-[3,5-dichloro-4-(methyloxy)phenyl]-1-methylethyl}-1-(4-fluorophenyl)-1H-imidazole] | > 7.00 | > 7.00
16 | COc1ccc(C(C)(C)c2cnc(SCc3c(F)cccc3Cl)n2-c2ccc(F)cc2)cc1Cl [2-{[(2-chloro-6-fluorophenyl)methyl]thio}-5-{1-[3-chloro-4-(methyloxy)phenyl]-1-methylethyl}-1-(4-fluorophenyl)-1H-imidazole] | > 7.00 | > 7.00
17 | COc1cc(C(C)(C)c2cnc(SCc3c(F)cccc3Cl)n2-c2ccc(F)cc2)ccc1Cl [2-{[(2-chloro-6-fluorophenyl)methyl]thio}-5-{1-[4-chloro-3-(methyloxy)phenyl]-1-methylethyl}-1-(4-fluorophenyl)-1H-imidazole] | > 7.00 | > 7.00
18 | COc1cc(C(C)(C)c2c(C)nc(SCc3c(F)cccc3Cl)n2-c2ccc(F)cc2)ccc1Cl [2-{[(2-chloro-6-fluorophenyl)methyl]thio}-5-{1-[4-chloro-3-(methyloxy)phenyl]-1-methylethyl}-1-(4-fluorophenyl)-4-methyl-1H-imidazole] | 6.00 to 7.00 | 6.00 to 7.00
19 | COc1cc(-n2c(C(C)(C)c3ccc(S(N)(=O)=O)c(Cl)c3)cnc2SCc2c(F)cc(C(=O)NCCS(=O)(=O)O)cc2F)ccc1F [2-{[(4-{[(5-{1-[4-(aminosulfonyl)-3-chlorophenyl]-1-methylethyl}-1-[4-fluoro-3-(methyloxy)phenyl]-1H-imidazol-2-yl)thio]methyl}-3,5-difluorophenyl)carbonyl]amino}ethanesulfonic acid] | > 7.00 | > 7.00
20 | COc1cc(-n2c(C(C)(C)c3ccc(S(N)(=O)=O)c(Cl)c3)cnc2SCc2ccc(C(=O)NCCS(=O)(=O)O)cc2F)ccc1F [2-{[(4-{[(5-{1-[4-(aminosulfonyl)-3-chlorophenyl]-1-methylethyl}-1-[4-fluoro-3-(methyloxy)phenyl]-1H-imidazol-2-yl)thio]methyl}-3-fluorophenyl)carbonyl]amino}ethanesulfonic acid] | > 7.00 | > 7.00
21 | CC(C)(c1ccc2ccccc2c1)c1cnc(SCc2c(F)cc(C(=O)O)cc2F)n1-c1ccc(F)cc1 [3,5-difluoro-4-({[1-(4-fluorophenyl)-5-(1-methyl-1-naphthalen-2-ylethyl)-1H-imidazol-2-yl]thio}methyl)benzoic acid] | 6.00 to 7.00 | 6.00 to 7.00
22 | CC(C)(c1ccc(S(C)(=O)=O)cc1)c1cnc(SCc2c(F)cc(C(=O)O)cc2F)n1-c1ccc(F)cc1 [3,5-difluoro-4-({[1-(4-fluorophenyl)-5-{1-methyl-1-[4-(methylsulfonyl)phenyl]ethyl}-1H-imidazol-2-yl]thio}methyl)benzoic acid] | > 7.00 | > 7.00
23 | COc1cc(-n2c(C(C)(C)c3cccc(S(C)(=O)=O)c3)cnc2SCc2c(F)cc(C(=O)O)cc2F)ccc1F [3,5-difluoro-4-{[(1-[4-fluoro-3-(methyloxy)phenyl]-5-{1-methyl-1-[3-(methylsulfonyl)phenyl]ethyl}-1H-imidazol-2-yl)thio]methyl}benzoic acid] | 6.00 to 7.00 | 6.00 to 7.00
24 | COc1cc(-n2c(C(C)(C)c3ccc(S(C)(=O)=O)cc3)cnc2SCc2c(F)cc(C(=O)O)cc2F)ccc1F [3,5-difluoro-4-{[(1-[4-fluoro-3-(methyloxy)phenyl]-5-{1-methyl-1-[4-(methylsulfonyl)phenyl]ethyl}-1H-imidazol-2-yl)thio]methyl}benzoic acid] | 6.00 to 7.00 | > 7.00
25 | CC(C)(c1ccc(Cl)c(Cl)c1)c1cnc(SCc2ccc(F)cc2Cl)n1-c1cccnc1 [3-(2-{[(2-chloro-4-fluorophenyl)methyl]thio}-5-[1-(3,4-dichlorophenyl)-1-methylethyl]-1H-imidazol-1-yl)pyridine] | 6.00 to 7.00 | 5.00 to 6.00
26 | COc1cc(C(C)(C)c2cnc(SCc3c(F)cccc3Cl)n2-c2cccnc2)ccc1Cl [3-(2-{[(2-chloro-6-fluorophenyl)methyl]thio}-5-{1-[4-chloro-3-(methyloxy)phenyl]-1-methylethyl}-1H-imidazol-1-yl)pyridine] | 6.00 to 7.00 | 6.00 to 7.00
